Measured values from patent publication US20050214413A1, “Methods and compositions for modified release of nutritional supplements” (Mannatech, Inc., priority 2003, published 2005).
Where “and” joins values, the source holds several entries; their conditions need not be identical. Identical values can stand only once. Entries after “also recorded” stand apart in the source; their conditions may differ.

What was measured:
Type in all cases: biochemical
[1] = ORAC(o) assay (dissolved oxygen, oxygen radical absorbance capacity)
Description: Method of Measuring Antioxidant Activity. In operation, the ORAC(o) assay of the present invention was used to evaluate antioxidant compositions, combinations and the like of solutions against a target molecule (linoleic acid) with oxygen present at equilibrium with the air. A free radical initiator is added and the time it takes for oxygen to disappear is measured, yielding the rate of disappearance. Trolox® is used as the standard, and a blank is run as a control. Amount of dissolved oxygen vs. time is plotted allowing direct comparison of net areas under the curve. A detailed method is as follows: Buffers (K2HPO4 (F.W. 174.2), NaH2PO4 (FW 120.0)) were obtained from Sigma (St. Louis, Mo.). Linoleic acid 99%, Trolox® (6-hydroxy-2,5,7,8-tetramethylchroman-2-carboxylic acid) 97%, TWEEN® 20, and 2,2'-azobis (2-methylpropionamidine) dihydrochloride 97% (AAPH), were obtained from Aldrich (Milwaukee, Wis.). HPLC grade acetone was obtained from Fisher (Hampton, […] biological oxygen meter was obtained from YSI (Yellow Springs, Ohio) and used according to the manufacturer's specifications. ORAC(o) Method. The following stock solutions were used. […] Weigh 65.33 g into 500 mL of volumetric flask, and add dH20 to the mark. Concentration is 750 mM. Store 750 mM K2HPO4 stock solution in a refrigerator (2 to 8° C.) equipped with a calibrated thermometer. Target temperature is 4° C. 750 mM NaH2PO4 (FW 120.0); Weigh 45.00 g into 500 mL of volumetric flask, and add dH20 to the mark. Concentration is 750 mM. Store 750 mM NaH2PO4 stock solution in a refrigerator (2 to 8° C.) equipped with a calibrated thermometer. Target temperature is 4° C. Mix 40 ml of 750 mM K2HPO4 stock solution and 10 ml of 750 mM NaH2PO4 stock solution (4 to 1 ratio). […] Store stock solution in a refrigerator (2 to 8° C.) equipped with a calibrated thermometer. Target temperature is 4° C. Dilute mixture with dH20 (1:9) to make working solution of ORAC buffer, and measure pH. It should be 7.4. Keep covered at room temperature until ready to use. Tween Preparation. Weigh out 10 g of Tween 20, and add 90 g of deionized water. Cover and stir the mixture overnight. Tween stock solution keeps for one week. Keep on countertop. Solvent Preparation. Mix 25 mL of acetone, 25 mL of deionized water, and 25 mL of Tween 20. Use this solvent to prepare samples. Before a run is performed: the probe should be inspected for damage paying particular attention to the membrane, replace if needed. Probes should be stored with the tips in deionized water. Only one probe and one reaction chamber should be used for this assay. Run a blank and Trolox® (at 10 μg/ml or 0.03995 μmol/ml) every 8 hours. […] The sample concentration and Trolox® concentration should be the same. The dilutions are prepared by weighing out 1 mg of sample and adding 1 ml of solvent to perform the initial extraction. Shake for one hour, place 0.5 ml of the initial extraction solution in a glass scintillation vial, and then add 4.5 ml of solvent, making the first dilution. Vortex the first dilution for about 30 seconds. Its concentration is 0.1 mg/ml or 100 ppm. Take 0.5 ml of the first dilution, put it into another glass scintillation vial, and then add 4.5 ml of solvent, vortex for about 30 seconds, to yield a concentration of 0.01 mg/ml or 10 ppm. Take 0.5 ml of the vial sample and put it into another glass scintillation vial, and then add 4.5 ml of solvent, vortex for about 30 seconds, to yield a concentration of […] are placed in a 4° C. refrigerator. In a 37° C. water bath allow linoleic acid to thaw, and prepare linoleic acid solution (with minimal light) by adding 0.18 mL Tween stock solution, 0.18 mL buffer, and 0.44 mL deionized water to 70.8 mg linoleic acid. Keep solution tube wrapped in foil. Make linoleic acid solution fresh every 8 hours. To prepare the oxygen radical generator, weigh 67.8 mg of AAPH, and dissolve in 0.9 mL buffer. Keep AAPH refrigerated, it may be used for up to eight hours. Shake for 1 hour. […]

[2] = ORAC(fl) assay (fluorescein, method of Ou et al.); conditions: mixed at different ratios with quercetin, standard acetone:water
Description: Prior Art Method of Measuring Antioxidant Activity for Comparison. For the ORAC(fl) assay, the method of Ou et al. (Ou , B., Hampsch-Woodill, M. and Prior, R. L., J. Agric. Food Chem. 2001, 49, 4619-4626) was followed. Differences from the Ou procedure as published included the speed of the orbital shaker (Ou, 400 rpm; herein, 280 rpm), and the centrifuge speed (Ou, 14,000 rpm, 15 min; herein, 3200 rpm, 15 min and the length of the assay (Ou, 30 min; herein, 100 min). Fluorescein, sodium salt, was obtained from Aldrich (Milwaukee, Wis.). For the Ou method, a standard amount of fluorescein is added to an antioxidant product being tested, and the beginning level of fluorescence is measured. A free radical initiator is added, and the time and degree of disappearance of fluorescence are measured. Trolox®, 6-Hydroxy-2,5,7,8-tetramethylchroman-2-carboxylic Acid, is a cell-permeable, water-soluble derivative of vitamin E with potent antioxidant properties. Trolox® prevents peroxynitrite-mediated oxidative stress and apoptosis in rat thymocytes and is a synthetic antioxidant that is consistent from lot-to-lot and is used as the standard and run for comparison with each sample. A blank (control) used in calculations of the ORAC(o) value for each samples may be included in each run. Fluorescence vs. time is plotted. The blank (control) is subtracted from every curve. […]

ORAC(fl-lipo) assay = assay: ORAC(fl-lipo) assay
Text: FIGS. 12A and 12B are graphs of ORAC(fl-lipo) results using mixed-tocopherol and the relative AUC results using the solvent/water/detergent solution to dissolve the sample and detect both lipohilic and lipophobic anti-oxidant capacity.

Row | SMILES | Area Under Curve (AUC), 5 Day Mean ([1]; quercetin sample 10 μg/mL) | Area under curve, 5 Run Mean ([1]; quercetin sample 10 μg/mL) | Area Under Curve (AUC), 5 day trial for precision ([1]; quercetin sample 10 μg/mL, each day average of 3 runs) | Area under curve, single day trial for precision ([1]; quercetin sample 10 μg/mL, separate runs) | Area Under Curve ([1]; sample 1 μg/ml) | Area Under Curve ([1]; sample 10 μg/ml) | Area Under Curve ([1]; sample 100 μg/ml) | Area Under Curve ([1]; sample 500 μg/ml) | Area Under Curve ([1]; sample 1000 μg/ml) | contribution to AO activity [2] | ORAC(fl-lipo) AUC, acetone:water:Tween-20 versus acetone:water (ORAC(fl-lipo) assay)
1 | O=c1c(O)c(-c2ccc(O)c(O)c2)oc2cc(O)cc(O)c12 [quercetin] | 203.7 | 202.9 | 202.7 and 212.9 and 187 and 202.9 and 213.1 | 207.4 and 198.2 and 205 and 201.6 and 202.1 | 124.6 | 209.4 | 693.6 | 2328 | 2870 | – | –
2 | Cc1c(C)c2c(c(C)c1O)CC[C@@](C)(CCC[C@H](C)CCC[C@H](C)CCCC(C)C)O2 [α-tocopherol] | – | – | – | – | – | – | – | – | – | no contribution to AO activity; also recorded: no statistically significant activity could be detected | large increase in the AUC
